# Tested on: MV-4-11 cells
# Assay: Gene expression microarray analysis (Affymetrix PrimeView) and GSEA
# Type: cell-based, human
# Design: RFU PODN (11730768_x_at) / Fold change /veh PODN (11730768_x_at) / RFU LINC00158 (11744669_a_at) / Fold change /veh LINC00158 (11744669_a_at) / RFU DUSP10 (11751237_a_at) / Fold change /veh DUSP10 (11751237_a_at) / RFU ID3 (11757404_x_at) / Fold change /veh ID3 (11757404_x_at) / RFU PLEKHG5 (11737974_s_at) / Fold change /veh PLEKHG5 (11737974_s_at) / RFU LRRC4B (11730491_at) / Fold change /veh LRRC4B (11730491_at) / RFU GIMAP4 (11747438_a_at) / Fold change /veh GIMAP4 (11747438_a_at) / RFU KRT8 (11758183_x_at) / Fold change /veh KRT8 (11758183_x_at) / RFU CNN1 (11734310_a_at) / Fold change /veh CNN1 (11734310_a_at) / RFU VPS37D (11726825_at) / Fold change /veh VPS37D (11726825_at) / RFU C10orf10 (11716522_x_at) / Fold change /veh C10orf10 (11716522_x_at) / RFU KIR2DL2 /// KIR2DL4 /// KIR2DL5A /// KIR2DL5B /// KIR2DS1 /// KIR2DS2 /// KIR2DS3 /// KIR2DS4 /// KIR3DL3 /// KIR3DL3 /// KIR3DS1 (11738374_at) / Fold change /veh KIR2DL2 /// KIR2DL4 /// KIR2DL5A /// KIR2DL5B /// KIR2DS1 /// KIR2DS2 /// KIR2DS3 /// KIR2DS4 /// KIR3DL3 /// KIR3DL3 /// KIR3DS1 (11738374_at) / RFU C1QL1 (11718748_at) / Fold change /veh C1QL1 (11718748_at) / RFU TMPRSS4 (11747572_a_at) / Fold change /veh TMPRSS4 (11747572_a_at) / RFU HAMP (11756126_x_at) / Fold change /veh HAMP (11756126_x_at) / RFU RNFT2 (11725882_a_at) / Fold change /veh RNFT2 (11725882_a_at) / RFU NR4A2 (11747474_a_at) / Fold change /veh NR4A2 (11747474_a_at) / RFU ABCC12 (11746883_a_at) / Fold change /veh ABCC12 (11746883_a_at) / RFU TMEM136 (11760407_x_at) / Fold change /veh TMEM136 (11760407_x_at) / RFU CLDN22 /// WWC2 (11732394_at) / Fold change /veh CLDN22 /// WWC2 (11732394_at) / RFU HLA-DPB1 (11760878_x_at) / Fold change /veh HLA-DPB1 (11760878_x_at) / RFU SPINT1 (11716480_a_at) / Fold change /veh SPINT1 (11716480_a_at) / RFU GAP43 (11754022_s_at) / Fold change /veh GAP43 (11754022_s_at) / RFU A4GNT (11735810_at) / Fold change /veh A4GNT (11735810_at) / RFU PRB3 (11715151_x_at) / Fold change /veh PRB3 (11715151_x_at) / RFU TUBB4B (11761932_at) / Fold change /veh TUBB4B (11761932_at) / RFU CAPN14 (11732068_a_at) / Fold change /veh CAPN14 (11732068_a_at) / RFU TMCC2 (11721928_a_at) / Fold change /veh TMCC2 (11721928_a_at) / RFU IRGQ (11745062_a_at) / Fold change /veh IRGQ (11745062_a_at) / RFU FAM174B (11720279_a_at) / Fold change /veh FAM174B (11720279_a_at) / RFU TMPRSS4 (11748680_a_at) / Fold change /veh TMPRSS4 (11748680_a_at) / RFU FAM212B (11763350_a_at) / Fold change /veh FAM212B (11763350_a_at) / RFU PLEKHG5 (11743358_a_at) / Fold change /veh PLEKHG5 (11743358_a_at) / RFU ZSCAN30 (11745921_a_at) / Fold change /veh ZSCAN30 (11745921_a_at) / RFU CMKLR1 (11741424_a_at) / Fold change /veh CMKLR1 (11741424_a_at) / RFU LOC101060620 /// MAPK8IP1 (11723275_at) / Fold change /veh LOC101060620 /// MAPK8IP1 (11723275_at) / RFU SPTSSB (11747773_x_at) / Fold change /veh SPTSSB (11747773_x_at) / RFU PRSS12 (11739890_at) / Fold change /veh PRSS12 (11739890_at) / RFU BIN1 (11741810_x_at) / Fold change /veh BIN1 (11741810_x_at) / RFU WNT11 (11732464_a_at) / Fold change /veh WNT11 (11732464_a_at) / RFU C10orf10 (11716521_a_at) / Fold change /veh C10orf10 (11716521_a_at) / RFU C5orf56 (11738089_at) / Fold change /veh C5orf56 (11738089_at) / RFU CYB561 (11721691_x_at) / Fold change /veh CYB561 (11721691_x_at) / RFU ANKRD19P (11752326_a_at) / Fold change /veh ANKRD19P (11752326_a_at) / RFU OR2T12 /// OR2T33 /// OR2T8 (11738714_s_at) / Fold change /veh OR2T12 /// OR2T33 /// OR2T8 (11738714_s_at) / RFU VCAN (11748164_a_at) / Fold change /veh VCAN (11748164_a_at) / RFU JSRP1 (11732532_at) / Fold change /veh JSRP1 (11732532_at) / RFU KRTAP10-11 (11738290_x_at) / Fold change /veh KRTAP10-11 (11738290_x_at) / RFU MYO3A (11730013_a_at) / Fold change /veh MYO3A (11730013_a_at) / RFU EBF3 (11725865_a_at) / Fold change /veh EBF3 (11725865_a_at) / RFU CAMK2N1 (11719241_x_at) / Fold change /veh CAMK2N1 (11719241_x_at) / RFU C5orf56 (11738088_a_at) / Fold change /veh C5orf56 (11738088_a_at) / RFU OLFML3 (11715873_a_at) / Fold change /veh OLFML3 (11715873_a_at) / RFU LOC100653217 /// NTM (11731650_a_at) / Fold change /veh LOC100653217 /// NTM (11731650_a_at) / RFU MAPK11 (11762145_a_at) / Fold change /veh MAPK11 (11762145_a_at) / RFU FIZ1 (11724087_x_at) / Fold change /veh FIZ1 (11724087_x_at) / RFU OASL (11726364_x_at) / Fold change /veh OASL (11726364_x_at) / RFU SOX15 (11748057_x_at) / Fold change /veh SOX15 (11748057_x_at) / RFU CD79A (11719716_a_at) / Fold change /veh CD79A (11719716_a_at) / RFU HIST1H1D (11736915_at) / Fold change /veh HIST1H1D (11736915_at) / RFU CASKIN2 (11723855_a_at) / Fold change /veh CASKIN2 (11723855_a_at) / RFU LOC730098 (11760151_x_at) / Fold change /veh LOC730098 (11760151_x_at) / RFU OR4N2 (11742367_at) / Fold change /veh OR4N2 (11742367_at) / RFU PRRT2 (11749266_a_at) / Fold change /veh PRRT2 (11749266_a_at) / RFU SNX32 (11753110_a_at) / Fold change /veh SNX32 (11753110_a_at) / RFU CDHR5 (11726645_a_at) / Fold change /veh CDHR5 (11726645_a_at) / RFU RCAN1 (11760418_a_at) / Fold change /veh RCAN1 (11760418_a_at) / RFU FAM167A (11723789_a_at) / Fold change /veh FAM167A (11723789_a_at) / RFU FAM26E (11764081_at) / Fold change /veh FAM26E (11764081_at) / RFU ISYNA1 (11749810_s_at) / Fold change /veh ISYNA1 (11749810_s_at) / RFU ACY1 (11761880_at) / Fold change /veh ACY1 (11761880_at) / RFU 11764098_at / Fold change /veh 11764098_at / RFU SAMD14 (11745864_x_at) / Fold change /veh SAMD14 (11745864_x_at) / RFU NPB (11741838_a_at) / Fold change /veh NPB (11741838_a_at) / RFU TMPRSS6 (11731388_a_at) / Fold change /veh TMPRSS6 (11731388_a_at) / RFU KRTAP10-2 (11738614_at) / Fold change /veh KRTAP10-2 (11738614_at) / RFU ARHGAP8 /// PRR5-ARHGAP8 (11727945_x_at) / Fold change /veh ARHGAP8 /// PRR5-ARHGAP8 (11727945_x_at) / RFU KRTAP5-7 /// NADSYN1 (11734609_at) / Fold change /veh KRTAP5-7 /// NADSYN1 (11734609_at) / RFU RASL12 (11751679_a_at) / Fold change /veh RASL12 (11751679_a_at) / RFU CDKN2B (11736163_a_at) / Fold change /veh CDKN2B (11736163_a_at) / RFU PRF1 (11729649_at) / Fold change /veh PRF1 (11729649_at) / RFU, ZNF638 /// ZNF638-IT1 / Fold change vs veh, ZNF638 /// ZNF638-IT1 / RFU, PANK3 / Fold change vs veh, PANK3 / RFU, SH3YL1 / Fold change vs veh, SH3YL1 / RFU, ZEB2 / Fold change vs veh, ZEB2 / RFU, NRIP1 / Fold change vs veh, NRIP1 / RFU, PTTG1IP / Fold change vs veh, PTTG1IP / RFU, CAPN2 / Fold change vs veh, CAPN2 / RFU, MED14 / Fold change vs veh, MED14 / RFU, SNORA58 / Fold change vs veh, SNORA58 / RFU, C1orf63 / Fold change vs veh, C1orf63 / RFU, LRRFIP1 / Fold change vs veh, LRRFIP1 / RFU, NDUFAF7 / Fold change vs veh, NDUFAF7 / RFU, SLC12A2 / Fold change vs veh, SLC12A2 / RFU, IBTK / Fold change vs veh, IBTK / RFU, ESF1 / Fold change vs veh, ESF1 / Fold change vs veh, TMEM50B / RFU, TAOK1 / Fold change vs veh, TAOK1 / RFU, ACBD3 / Fold change vs veh, ACBD3 / RFU, TMA16 / Fold change vs veh, TMA16 / RFU, RWDD3 / Fold change vs veh, RWDD3 / RFU, BCAT1 / Fold change vs veh, BCAT1 / RFU, EDEM3 / Fold change vs veh, EDEM3 / RFU, TMEM33 / Fold change vs veh, TMEM33 / RFU, WDR75 / Fold change vs veh, WDR75 / RFU, AHCTF1 / Fold change vs veh, AHCTF1 / RFU, TFRC / Fold change vs veh, TFRC / RFU, ZDHHC17 / Fold change vs veh, ZDHHC17 / RFU, NOM1 / Fold change vs veh, NOM1 / RFU, ARL8B / Fold change vs veh, ARL8B / RFU, ZBTB11 / Fold change vs veh, ZBTB11 / RFU, TAMM41 / Fold change vs veh, TAMM41 / RFU, KIAA1704 /// LOC100996395 / Fold change vs veh, KIAA1704 /// LOC100996395 / RFU, ING1 / Fold change vs veh, ING1 / RFU, TRMT61B / Fold change vs veh, TRMT61B / RFU, FUBP3 / Fold change vs veh, FUBP3 / RFU, TP53 / Fold change vs veh, TP53 / RFU, TNKS2 / Fold change vs veh, TNKS2 / RFU, ZFP14 / Fold change vs veh, ZFP14 / RFU, ACTR2 / Fold change vs veh, ACTR2 / RFU, PPP3R1 / Fold change vs veh, PPP3R1 / RFU, PIK3R1 / Fold change vs veh, PIK3R1 / RFU, HNRNPA1 / Fold change vs veh, HNRNPA1 / RFU, RNF170 / Fold change vs veh, RNF170 / RFU, ZNF28 / Fold change vs veh, ZNF28 / RFU, RNGTT / Fold change vs veh, RNGTT / RFU, OGT / Fold change vs veh, OGT / RFU, BRD1 / Fold change vs veh, BRD1 / RFU, MARS / Fold change vs veh, MARS / RFU, ZNF655 / Fold change vs veh, ZNF655 / RFU, FAHD1 / Fold change vs veh, FAHD1 / RFU, BDP1 / Fold change vs veh, BDP1 / RFU, LRRCC1 / Fold change vs veh, LRRCC1 / RFU, ARID1A / Fold change vs veh, ARID1A / RFU, ZNF146 / Fold change vs veh, ZNF146 / RFU, ZNF330 / Fold change vs veh, ZNF330 / RFU, GPN3 / Fold change vs veh, GPN3 / RFU, C9orf123 / Fold change vs veh, C9orf123 / RFU, N4BP2L2 / Fold change vs veh, N4BP2L2 / RFU, ARFIP1 / Fold change vs veh, ARFIP1 / RFU, FAM179B / Fold change vs veh, FAM179B / RFU, BCL10 / Fold change vs veh, BCL10 / RFU, UHRF1BP1L / Fold change vs veh, UHRF1BP1L / RFU, BET1 / Fold change vs veh, BET1 / RFU, CNOT2 / Fold change vs veh, CNOT2 / RFU, ZNF268 / Fold change vs veh, ZNF268 / Fold change vs veh, ZNF507 / RFU, DGCR2 / Fold change vs veh, DGCR2 / RFU, WDSUB1 / Fold change vs veh, WDSUB1 / Fold change vs veh, HSP90B1 /// MIR3652 / RFU, ADSS / Fold change vs veh, ADSS / RFU, GK / Fold change vs veh, GK / RFU, ZNF148 / Fold change vs veh, ZNF148 / RFU, TAF9 / Fold change vs veh, TAF9 / RFU, SLC1A5 / Fold change vs veh, SLC1A5 / RFU, SLMO2 / Fold change vs veh, SLMO2 / RFU, ABCC4 / Fold change vs veh, ABCC4 / RFU, LOC101060439 /// RAP1B / Fold change vs veh, LOC101060439 /// RAP1B / RFU, RFX7 / Fold change vs veh, RFX7 / RFU, GTPBP10 / Fold change vs veh, GTPBP10 / RFU, CNEP1R1 / Fold change vs veh, CNEP1R1 / RFU, BIVM-ERCC5 /// ERCC5 / Fold change vs veh, BIVM-ERCC5 /// ERCC5 / RFU, ILF3 / Fold change vs veh, ILF3 / RFU 11762660_at / Fold change /veh 11762660_at / RFU VCAN (11757783_s_at) / Fold change /veh VCAN (11757783_s_at) / RFU DDX43 (11728927_at) / Fold change /veh DDX43 (11728927_at) / RFU KRT8 (11758188_x_at) / Fold change /veh KRT8 (11758188_x_at) / RFU NKD1 (11759106_at) / Fold change /veh NKD1 (11759106_at) / RFU SRD5A1 (11742802_a_at) / Fold change /veh SRD5A1 (11742802_a_at) / RFU TPSAB1 /// TPSB2 (11721975_s_at) / Fold change /veh TPSAB1 /// TPSB2 (11721975_s_at) / RFU GSTM3 (11746129_a_at) / Fold change /veh GSTM3 (11746129_a_at) / RFU IL23R (11737362_x_at) / Fold change /veh IL23R (11737362_x_at) / RFU TMEM51 (11727254_a_at) / Fold change /veh TMEM51 (11727254_a_at) / RFU PIWIL2 (11732686_x_at) / Fold change /veh PIWIL2 (11732686_x_at) / RFU ORM1 (11744905_x_at) / Fold change /veh ORM1 (11744905_x_at) / RFU CCDC152 (11743942_at) / Fold change /veh CCDC152 (11743942_at) / RFU ECM1 (11717891_a_at) / Fold change /veh ECM1 (11717891_a_at) / RFU IL23R (11748794_a_at) / Fold change /veh IL23R (11748794_a_at) / RFU TNFAIP8L3 (11732012_x_at) / Fold change /veh TNFAIP8L3 (11732012_x_at) / RFU MBOAT4 (11741988_at) / Fold change /veh MBOAT4 (11741988_at) / RFU 11764193_at / Fold change /veh 11764193_at / RFU TMEM53 (11763286_at) / Fold change /veh TMEM53 (11763286_at) / RFU MAGEB2 (11727129_at) / Fold change /veh MAGEB2 (11727129_at) / RFU TMEM200A (11744735_a_at) / Fold change /veh TMEM200A (11744735_a_at) / RFU CCDC152 (11751479_a_at) / Fold change /veh CCDC152 (11751479_a_at) / RFU FAM211A (11726209_a_at) / Fold change /veh FAM211A (11726209_a_at) / RFU RGS16 (11746705_a_at) / Fold change /veh RGS16 (11746705_a_at) / RFU VCAN (11755009_s_at) / Fold change /veh VCAN (11755009_s_at) / RFU RHOB (11743442_s_at) / Fold change /veh RHOB (11743442_s_at) / RFU RGS16 (11720943_a_at) / Fold change /veh RGS16 (11720943_a_at) / RFU RGS16 (11720944_at) / Fold change /veh RGS16 (11720944_at) / RFU, VPS4B / Fold change vs veh, VPS4B / RFU, CREB1 / Fold change vs veh, CREB1 / RFU, DNAJC13 / Fold change vs veh, DNAJC13 / RFU, GNAQ / Fold change vs veh, GNAQ / RFU, CDK5R1 / Fold change vs veh, CDK5R1 / RFU, ZRANB3 / Fold change vs veh, ZRANB3 / RFU, CUL4A / Fold change vs veh, CUL4A / RFU, CCNY / Fold change vs veh, CCNY / RFU, UFL1 / Fold change vs veh, UFL1 / RFU, COG3 / Fold change vs veh, COG3 / RFU, DIAPH2 / Fold change vs veh, DIAPH2 / RFU, SKA2 / Fold change vs veh, SKA2 / RFU, AFF3 / Fold change vs veh, AFF3 / RFU, LMF1 / Fold change vs veh, LMF1 / RFU, IPO11 / Fold change vs veh, IPO11 / RFU, DFFB / Fold change vs veh, DFFB / RFU, FOXP1 / Fold change vs veh, FOXP1 / RFU, CARD8 / Fold change vs veh, CARD8 / RFU, STRN3 / Fold change vs veh, STRN3 / RFU, ADK / Fold change vs veh, ADK / RFU, RASSF2 / Fold change vs veh, RASSF2 / RFU, WIPF1 / Fold change vs veh, WIPF1 / RFU, LARP1B / Fold change vs veh, LARP1B / RFU, RASA1 / Fold change vs veh, RASA1 / RFU, RB1 / Fold change vs veh, RB1 / RFU, PPFIA1 / Fold change vs veh, PPFIA1 / RFU, MAT2A / Fold change vs veh, MAT2A / RFU, CCT5 / Fold change vs veh, CCT5 / RFU, WDR92 / Fold change vs veh, WDR92 / RFU, CUX1 / Fold change vs veh, CUX1 / RFU, TTC7A / Fold change vs veh, TTC7A / RFU, TMEM135 / Fold change vs veh, TMEM135 / RFU, DEPTOR / Fold change vs veh, DEPTOR / RFU, CPM / Fold change vs veh, CPM / RFU, DNAJB6 / Fold change vs veh, DNAJB6 / RFU, CACNA2D3 / Fold change vs veh, CACNA2D3 / RFU, DTX4 / Fold change vs veh, DTX4 / RFU, TFCP2 / Fold change vs veh, TFCP2 / RFU, GMCL1 /// GMCL1P1 / Fold change vs veh, GMCL1 /// GMCL1P1 / RFU, AEBP2 / Fold change vs veh, AEBP2 / RFU, SNHG1 /// SNORD22 /// SNORD25 /// SNORD26 /// SNORD27 /// SNORD28 /// SNORD29 /// SNORD31 / Fold change vs veh, SNHG1 /// SNORD22 /// SNORD25 /// SNORD26 /// SNORD27 /// SNORD28 /// SNORD29 /// SNORD31 / Fold change (Aza/veh), C12orf56 (ProbeSet 11735607_a_at) / Fold change (ACY-1035/veh), C12orf56 (ProbeSet 11735607_a_at) / Fold change (Aza/veh), FGFR1OP (ProbeSet 11751329_s_at) / Fold change (ACY-1035/veh), FGFR1OP (ProbeSet 11751329_s_at) / Fold change (Aza/veh), VPS36 (ProbeSet 11739960_a_at) / Fold change (ACY-1035/veh), VPS36 (ProbeSet 11739960_a_at) / RFU SYPL1 (11715823_x_at) / Fold change /veh SYPL1 (11715823_x_at) / RFU IGFBP7 (11715501_s_at) / Fold change /veh IGFBP7 (11715501_s_at) / RFU REEP3 (11722064_at) / Fold change /veh REEP3 (11722064_at) / RFU IGLL1 (11728026_x_at) / Fold change /veh IGLL1 (11728026_x_at): dose or concentration left out as unconfirmed
# Conditions: ProbeSet 11720269_a_at; LIST B
smiles,measurement,value
Nc1ncn([C@@H]2O[C@H](CO)[C@@H](O)[C@H]2O)c(=O)n1 [azacitidine],"Fold change vs veh, IBTK",0.94

# Reference: paper PMC5218480 (PLoS ONE, 2017)
